In brackets after ≈: the same amount, converted by molar mass. Where a SMILES comes first, the peptide text is derived from it. Bridges are numbered along the chain shown (N, C = ends).
Legend:
[1] = tested on: Vibrio Parahaemolyticus; test: MIC, two-fold broth microdilution; format: cell-based; details: Aquatic pathogenic bacteria; two-fold broth microdilution, 37 °C, 18 h; mean of three independent experiments in duplicates
Outline: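 Two-fold broth microdilution in Mueller-Hinton broth, exponential-phase inoculum at 10^6 CFU/mL mixed 1:1 with peptide dilutions. After 18 h at 37 °C with shaking, A595 read; MIC is the lowest concentration with no growth, averaged over three independent experiments.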

[2] = tested on: Raw264.7 cells; test: LPS-induced NO, cytokine and chemokine production (Griess reagent, ELISA); format: cell-based, murine; details: LPS 100 ng/mL, peptide 5, 10, 20 μg/mL, 24 h, Fig. 6
Procedure: RAW264.7 cells were cultured in DMEM (Gibco, Gaithersburg, USA), containing 10% fetal bovine serum, 100 U/mL streptomycin and 100 U/mL penicillin at 37 °C with 5% CO2, and plated in 24-well plate (1 × 10^6 cells/well). After adhesion, the cells were treated with LPS (100 ng/mL, from E. coli 055:B5, Sigma-Aldrich) in the absence or presence (5, 10, 20 μg/mL) of peptides for 24 h in the same condition. Untreated cells and LPS alone treated cells served as control. The NO was determined using Griess reagent (Beyotime, Jiangsu, China) according to the manufacturer’s protocol. ELISA kits (Joyee, shanghai, china) were used to detect the levels of pro-inflammatory cytokines and chemokines in RAW264.7 cell culture supernatant, including TNF-α, IL-6, IL-1β and MCP-1.

[3] = tested on: E. coli 08040726; test: Bacterial killing kinetic assay, colony counting; format: cell-based
Procedure: The bacterial killing kinetics of the hybrid peptides against E. coli 08040726 was determined by counting the changes in the viable bacterial clones after peptide treatment. The experiment was carried out according to the method described previously with minor modifications. Fresh colonies of the bacteria were incubated in MH broth at 37 °C for 12 h and diluted to 10^6 CFU/in fresh MH broth. The hybrid peptide was added to the bacterial suspension with a final concentration of 1x and 5x corresponding MICs, and incubated at 37 °C for 0, 10, 20, 30, 45, 60, 90, 120, and 180 mins. At each time point, aliquots (50 μL) were removed and diluted with fresh MH broth for 1000 times. […] of the dilutions were coated on MH agar plates, incubated overnight at 37 °C, and the viable colonies were counted. Ampicillin was used as positive control and sterile deionized water was used as negative control.

Question: With `CC[C@H](C)[C@@H]1NC(=O)[C@H](CO)NC(=O)[C@H](CCCCN)NC(=O)[C@H]([C@@H](C)O)NC(=O)[C@H](Cc2c[nH]c3ccccc23)NC(=O)[C@@H](N)CSSC[C@@H](C(=O)N[C@@H](CCCCN)C(=O)N[C@@H](Cc2ccccc2)C(=O)N[C@@H](Cc2ccccc2)C(=O)N[C@@H](CCCCN)C(=O)N[C@@H](CCCNC(=N)N)C(=O)N[C@@H](Cc2ccccc2)C(=O)N[C@@H](Cc2ccccc2)C(=O)N[C@@H](CCCCN)C(=O)N[C@@H](CO)C(=O)N[C@@H](Cc2ccccc2)C(=O)N[C@@H](CCCNC(=N)N)C(=O)N[C@@H](CCCNC(=N)N)C(=O)N[C@@H](C)C(=O)N[C@@H](Cc2ccccc2)C(=O)N[C@@H](CCCCN)C(=O)N[C@@H](CCCCN)C(=O)N[C@@H](Cc2ccccc2)C(N)=O)NC(=O)[C@@H]2CCCN2C(=O)[C@H](CCCCN)NC(=O)[C@@H]2CCCN2C(=O)[C@@H]2CCCN2C1=O` [TIH3F] (H-CWTKSIPPKPCKFFKRFFKSFRRAFKKF-NH2; disulfide 1-11) as the compound, how does the “MIC Vibrio Parahaemolyticus” value [1] read?
Answer: 4.69 µg/mL (≈ 1.32 µM)

Question: And the “LPS-induced production of NO, TNF-α, IL-6, IL-1β, MCP-1” value [2]?
Answer: strongest anti-inflammation effect

Question: What about the “time of killing toward E. coli” value ([3]; 1xMIC) of the same compound?
Answer: ≤ 2 h

Question: And the “time of killing toward E. coli” value ([3]; 5xMIC)?
Answer: ≤ 0.5 h
